In patent publication US10206394B2, “Herbicidal compounds” (Syngenta Participations AG, priority 2014, dated 2019):
Like-named read-outs stand apart in the source and are kept apart here.

Columns and labels:
Assay in all cases: Glasshouse assay for herbicidal activity (pre- and post-emergence), percentage phytotoxicity
Assay type in all cases: in vivo
[1] = system: Echinochloa crus-galli (ECHCG); details: Echinochloa crus-galli, 250 g/ha, visual score (100%=total damage; 0%=no damage)
Description: (§1) Test—Glasshouse Assay for Herbicidal Activity
(§2) Seeds of a variety of monocotyledonous and dicotyledonous test plants are sown in standard soil in pots. The plants are cultivated for one day (for pre-emergence (PRE)) or for about 12 days (for post-emergence (POST)) under controlled conditions in a glasshouse (warm climate species at 24/18° C., cool climate species at 20/16° C., both at day/night; 16 hours light; 65% humidity).
(§3) The test plants are then grown on, in a glasshouse (greenhouse) under controlled conditions (warm climate species at 24/18° C., cool climate species at 20/16° C., both at day/night; 16 hours light; 65% humidity) and are watered twice daily. 15 days after application of the test herbicide (15 DAA) (for post-emergence), and 20 days after application of the test herbicide (20 DAA) (for pre-emergence), the test plants are evaluated visually, and an assessed percentage phytotoxicity score is given for each herbicidal application on each plant species (with 100%=total damage to plant; 0%=no damage to plant).
(§4) The plant species tested are as follows: Alopecurus myosuroides (ALOMY), Avena fatua (AVEFA), Lolium perenne (LOLPE), Echinochloa crus-galli (ECHCG).

Lolium perenne (LOLPE) = details: Lolium perenne, 250 g/ha, visual score (100%=total damage; 0%=no damage)
Description: as §1, §2, §3, §4

Avena fatua (AVEFA) = details: Avena fatua, 250 g/ha, visual score (100%=total damage; 0%=no damage)
Description: as §1, §2, §3, §4

[2] = system: Alopecurus myosuroides (ALOMY); details: Alopecurus myosuroides, 250 g/ha, visual score (100%=total damage; 0%=no damage)
Description: as §1, §2, §3, §4

[3] = post-emergence, 360 h, post-emergence, 15 DAA, read-out: ECHCG POST herbicidal activity (percentage phytotoxicity)
[4] = pre-emergence, 480 h, pre-emergence, 20 DAA, read-out: ECHCG PRE herbicidal activity (percentage phytotoxicity)
[5] = post-emergence, 360 h, post-emergence, 15 DAA, read-out: LOLPE POST herbicidal activity (percentage phytotoxicity)
[6] = pre-emergence, 480 h, pre-emergence, 20 DAA, read-out: LOLPE PRE herbicidal activity (percentage phytotoxicity)
[7] = post-emergence, 360 h, post-emergence, 15 DAA, read-out: AVEFA POST herbicidal activity (percentage phytotoxicity)
[8] = pre-emergence, 480 h, pre-emergence, 20 DAA, read-out: AVEFA PRE herbicidal activity (percentage phytotoxicity)
[9] = post-emergence, 360 h, post-emergence, 15 DAA, read-out: ALOMY POST herbicidal activity (percentage phytotoxicity)
[10] = pre-emergence, 480 h, pre-emergence, 20 DAA, read-out: ALOMY PRE herbicidal activity (percentage phytotoxicity)

`Cc1cc(-c2ncc(Cl)cc2Cl)cc(C)c1C1C(=O)CC(CC(=O)NC(C)(C)C)C1=O` (centres unmarked) [Compound A168] was tested, and the pest or weed control at 250 g/ha [1, 3] was 100%, the pest or weed control at 250 g/ha [1, 4] was 80% and the pest or weed control at 250 g/ha (Lolium perenne (LOLPE); [5]) was 100%. The pest or weed control at 250 g/ha (Lolium perenne (LOLPE); [6]) was 80%, the pest or weed control at 250 g/ha (Avena fatua (AVEFA); [7]) was 90% and the pest or weed control at 250 g/ha (Avena fatua (AVEFA); [8]) was 20%. It also gave a pest or weed control at 250 g/ha [2, 9] of 90% and a pest or weed control at 250 g/ha [2, 10] of 80%.

`CCCN(CC)C(=O)CC1CC(=O)C(c2c(C)cc(C)cc2C)C1=O` (centres unmarked) [Compound A171] showed a pest or weed control at 250 g/ha [1, 3] of 70%, a pest or weed control at 250 g/ha [1, 4] of 80% and a pest or weed control at 250 g/ha (Lolium perenne (LOLPE); [5]) of 80%. The pest or weed control at 250 g/ha (Lolium perenne (LOLPE); [6]) was 70%, the pest or weed control at 250 g/ha (Avena fatua (AVEFA); [7]) was 70% and the pest or weed control at 250 g/ha (Avena fatua (AVEFA); [8]) was 20%. For the same molecule, the pest or weed control at 250 g/ha [2, 9] was 70% and the pest or weed control at 250 g/ha [2, 10] was 60%.

Work on `Cc1cc(C)c(C2C(=O)CC(CC(=O)N3CCC(C)CC3)C2=O)c(C)c1` (centres unmarked) [Compound A172] yielded a pest or weed control at 250 g/ha [1, 3] of 70%, a pest or weed control at 250 g/ha [1, 4] of 80% and a pest or weed control at 250 g/ha (Lolium perenne (LOLPE); [5]) of 60%. It also gave a pest or weed control at 250 g/ha (Lolium perenne (LOLPE); [6]) of 90%, a pest or weed control at 250 g/ha (Avena fatua (AVEFA); [7]) of 70% and a pest or weed control at 250 g/ha (Avena fatua (AVEFA); [8]) of 40%. For the same molecule, the pest or weed control at 250 g/ha [2, 9] was 80% and the pest or weed control at 250 g/ha [2, 10] was 80%.

With `Cc1cc(C)c(C2C(=O)CC(CC(=O)N3CC(C)CC(C)C3)C2=O)c(C)c1` (centres unmarked) [Compound A173] the pest or weed control at 250 g/ha [1, 3] was 30%, the pest or weed control at 250 g/ha [1, 4] was 10% and the pest or weed control at 250 g/ha (Lolium perenne (LOLPE); [5]) was 60%. The pest or weed control at 250 g/ha (Lolium perenne (LOLPE); [6]) was 80%, the pest or weed control at 250 g/ha (Avena fatua (AVEFA); [7]) was 30% and the pest or weed control at 250 g/ha (Avena fatua (AVEFA); [8]) was 10%. The pest or weed control at 250 g/ha [2, 9] was 20% and the pest or weed control at 250 g/ha [2, 10] was 50%.

`Cc1cc(C)c(C2C(=O)CC(CC(=O)NCC3CSC3)C2=O)c(C)c1` (centres unmarked) [Compound A174] gave a pest or weed control at 250 g/ha [1, 3] of 10%, a pest or weed control at 250 g/ha (Lolium perenne (LOLPE); [5]) of 0% and a pest or weed control at 250 g/ha (Avena fatua (AVEFA); [7]) of 0%. For the same molecule, the pest or weed control at 250 g/ha [2, 9] was 40%.

In the case of `C=CCNC(=O)CC1CC(=O)C(c2c(C)cc(C)cc2C)C1=O` (centres unmarked) [Compound A175], the pest or weed control at 250 g/ha [1, 3] is reported as 90%, the pest or weed control at 250 g/ha [1, 4] is reported as 90% and the pest or weed control at 250 g/ha (Lolium perenne (LOLPE); [5]) is reported as 90%. It also gave a pest or weed control at 250 g/ha (Lolium perenne (LOLPE); [6]) of 100%, a pest or weed control at 250 g/ha (Avena fatua (AVEFA); [7]) of 90% and a pest or weed control at 250 g/ha (Avena fatua (AVEFA); [8]) of 70%. For the same molecule, the pest or weed control at 250 g/ha [2, 9] was 80% and the pest or weed control at 250 g/ha [2, 10] was 80%.

With `COCCCNC(=O)CC1CC(=O)C(c2c(C)cc(C)cc2C)C1=O` (centres unmarked) [Compound A176] the pest or weed control at 250 g/ha [1, 3] was 100%, the pest or weed control at 250 g/ha [1, 4] was 100% and the pest or weed control at 250 g/ha (Lolium perenne (LOLPE); [5]) was 100%. For the same molecule, the pest or weed control at 250 g/ha (Lolium perenne (LOLPE); [6]) was 100%, the pest or weed control at 250 g/ha (Avena fatua (AVEFA); [7]) was 90% and the pest or weed control at 250 g/ha (Avena fatua (AVEFA); [8]) was 90%. It also gave a pest or weed control at 250 g/ha [2, 9] of 90% and a pest or weed control at 250 g/ha [2, 10] of 90%.

`CCCCCNC(=O)CC1CC(=O)C(c2c(C)cc(C)cc2C)C1=O` (centres unmarked) [Compound A177] was tested, and the pest or weed control at 250 g/ha [1, 3] was 90%, the pest or weed control at 250 g/ha [1, 4] was 90% and the pest or weed control at 250 g/ha (Lolium perenne (LOLPE); [5]) was 80%. For the same molecule, the pest or weed control at 250 g/ha (Lolium perenne (LOLPE); [6]) was 100%, the pest or weed control at 250 g/ha (Avena fatua (AVEFA); [7]) was 80% and the pest or weed control at 250 g/ha (Avena fatua (AVEFA); [8]) was 60%. For the same molecule, the pest or weed control at 250 g/ha [2, 9] was 80% and the pest or weed control at 250 g/ha [2, 10] was 100%.

`CCCCCCCNC(=O)CC1CC(=O)C(c2c(C)cc(C)cc2C)C1=O` (centres unmarked) [Compound A178] gave a pest or weed control at 250 g/ha [1, 3] of 40%, a pest or weed control at 250 g/ha [1, 4] of 80% and a pest or weed control at 250 g/ha (Lolium perenne (LOLPE); [5]) of 70%. For the same molecule, the pest or weed control at 250 g/ha (Lolium perenne (LOLPE); [6]) was 80%, the pest or weed control at 250 g/ha (Avena fatua (AVEFA); [7]) was 70% and the pest or weed control at 250 g/ha (Avena fatua (AVEFA); [8]) was 0%. For the same molecule, the pest or weed control at 250 g/ha [2, 9] was 70% and the pest or weed control at 250 g/ha [2, 10] was 20%.
